Measurements as given in paper PMC10622746, “Coadministration of ivermectin and abamectin affects milk pharmacokinetics of the antiparasitic clorsulon in Assaf sheep” (Frontiers in Veterinary Science, 2023).
Like-named read-outs stand apart in the source and are kept apart here. Each block holds one molecule with its values, some of them ahead of it.

Experiments:
ovine ABCG2 [1] = test system: ovine ABCG2
Method: (§5) This study employed Madin-Darby Canine Kidney (MDCKII) cells that had been previously transduced with ovine ABCG2. […] Briefly, cells were grown in DMEM (Dulbecco’s modified Eagle’s medium) enriched with glutamax (Life Technologies, Inc., Rockville, MD, United States) and supplemented with penicillin (50 units/mL), streptomycin (50 μg/mL), and 10% (v/v) fetal calf serum (MP Biomedicals, Solon, OH, United States) at a temperature of 37°C and 5% of CO2. Every 3 to 4 days, cells were trypsinized for subculturing.
(§6) Transcellular transport experiments using ovine ABCG2-transduced cells were conducted following the method previously described ([33]). Cells were seeded onto microporous polycarbonate membrane filters (3.0 μm pore size, 24 mm diameter; Transwell 3414; Costar, Corning, NY) at a density of 1.0 × 10^6 per well. The tightness of the monolayer was assessed by measuring its transcellular resistance using Millicell ERS (Millipore Burlington, MA).
(§7) Two hours before the beginning, preincubation was carried out replacing medium in both compartments with 2 mL of transport medium [Hanks’ balanced salt solution supplemented with HEPES (25 mM)] with or without the macrocyclic lactones (10 μM ivermectin and 2.5 μM abamectin). The experiment began with the replacement of the medium in either the apical or basal compartment with transport medium containing clorsulon (10 μM), with or without the same concentration of macrocyclic lactones. Aliquots of 100 μL at 1, 2 and 3 h in the opposite compartment were taken, this volume being replaced with fresh medium. At 4 h, 600 μL aliquots were taken in both compartments. Until analysis by high-performance liquid chromatography (HPLC), samples were stored at −20°C. After concluding the experiment, the confluence of the monolayer was evaluated by means of the Lucifer Yellow permeability assay ([34]). Transport proficiency of these cells was consistently verified through the evaluation of a typical ABCG2 substrate, danofloxacin ([25]).
(§8) The apparent permeability coefficients (Papp) across MDCKII parent and MDCKII oABCG2 cells monolayers in both apical to basal (A-B) (Papp A-B) and basal to apical (B-A) (Papp B-A) directions were calculated using following equation: Papp = (ΔQ/Δt)*(1/A*Co), where ΔQ/Δt is the rate of corresponding clorsulon appearing in the receiver chamber, which was obtained as the slope of the regression line on the transport time profile of clorsulon across the cell monolayers (from 0 to 4 h); Co is the initial concentration of drug; A is the cell monolayer surface area (4.67 cm^2). The efflux ratio is the Papp B-A/Papp A-B quotient.

[2] = Transepithelial transport of clorsulon across MDCKII parental cell monolayers; format: in vitro ADME, Canine; details: dog, MDCK, MDCKII parental cells, clorsulon 10 μM, with or without ivermectin 10 μM, abamectin 2.5 μM, Ko143 1 μM, mean ± SD
ovine ABCG2 [3] = assay: in vitro; details: sheep
Method: as §5, §6, §7, §8

murine ABCG2 = test system: murine ABCG2; parameters: method as in PMID 37078871; details: murine ABCG2 transduced cell line; cited from earlier work
[4] = Plasma pharmacokinetics of clorsulon in lactating Assaf sheep; format: in vivo; details: female
Method: (§1) Studies with sheep were carried out on the Experimental Farm of the University of León, following institutional guidelines in accordance with European legislation (2010/63/EU). Procedures were also approved by the Animal Care and Use Committee of the University of León ULE-008-2019 (25/09/2019). Eighteen lactating sheep (3–4 months in lactation) of between 77–83 kg were used. Animals were previously dewormed and they had ad libitum access to drinking water. Sheep were randomly distributed in three experimental groups. All received a subcutaneous (s.c.) injection of clorsulon at 2 mg/kg (dissolved in DMSO, 80 mg/mL); one group coadministrated with another s.c. injection of ivermectin at 0.2 mg/kg (Ivomec® 1%, Merial, France) and another group with another s.c. injection of abamectin at 0.2 mg/kg (dissolved in DMSO, 8 mg/mL). Blood samples were taken from the jugular vein, while milk samples were obtained after completing milking of the gland before each treatment and at intervals of 1, 2, 4, 6, 8, 10, 12, 24, 30, 48, 72, 96, 120 and 168 h thereafter. Plasma was separated by centrifuging at 1200 g 15 min. Samples were stored at −20°C until analyzed.
(§2) Samples were analyzed by HPLC under conditions which have been previously described ([31]). Briefly, the chromatographic system used included a Waters 2695 separation module and a Waters 2998 UV photodiode array detector. Separation was performed on a reversed-phase column ([…], […], Torrance, CA, United States). The mobile phase consisted of potassium phosphate 0.01 M (pH 7): acetonitrile (75:25). The flow rate was set at 1.20 mL/min, with UV absorbance measured at 225 nm, and the column temperature maintained at 35°C.
(§3) In vitro samples were injected directly into the HPLC system. In vivo samples, milk and plasma, were extracted following a formerly described method ([31]) with minor modifications. For milk and plasma samples, 10 μL of albendazole-2-aminosulfone (6.25 μg/mL) as internal standard and 200 μL of ethyl acetate were added to each 100 μL. Then, the mixture was vortexed horizontally for 1 min and centrifuged at 8000 g for 10 min at 4°C. The resulting supernatant was collected and subjected to evaporation under N2 at 30°C until dryness. To the evaporated samples, 500 μL of hexane and 300 μL of acetonitrile was added, the mixture was again vortexed horizontally for 1 min and centrifuged at 3000 g for 10 min at 4°C. Hexane was removed and the rest was evaporated to dryness under nitrogen stream. After being resuspended in 100 μL of cold methanol, samples were injected into the HPLC system.
(§4) Plasma and milk concentrations for each animal were analyzed using PK solution 2.0 computer program (Summit Research Services, Ashland, OH) to calculated pharmacokinetic parameters as previously described ([27]).

[5] = Milk pharmacokinetics of clorsulon in lactating Assaf sheep; format: in vivo; details: clorsulon 2 mg/kg s.c., alone or with ivermectin or abamectin 0.2 mg/kg s.c., mean ± SD, n = 6
Method: as §1, §2, §3, §4

[6] = parameters: method as in earlier work; details: cattle, s.c. 2 mg/kg clorsulon; cited from earlier work
human ABCG2 = test system: human ABCG2; parameters: method as in PMID 37078871; details: human ABCG2 transduced cell line; cited from earlier work
ovine ABCG2 [7] = details: at 25 μM in ovine ABCG2-transduced cells; cited from earlier work
[8] = MDCKII oABCG2 cells, ivermectin 10 μM, abamectin […], Ko143 1 μM
[9] = sc, clorsulon 2 mg/kg s.c., alone or with ivermectin or abamectin 0.2 mg/kg s.c., mean ± SD, n = 6

Molecule: COc1ccc2c3c([nH]c2c1)[C@H](CC(C)C)N1C(=O)[C@H](CCC(=O)OC(C)(C)C)NC(=O)[C@@H]1C3 [Ko143]
Inhibition of clorsulon (10 μM) transport mediated by ovine ABCG2 (in words) (ovine ABCG2 [1]; [8]): complete inhibition

Papp A→B at 4 h, 10 μM ([2]; n ≥ 3, read-out: AP-BL (Papp A-B)): 2.27 ± 0.46 ×10⁻⁶ cm/s | Papp B→A at 4 h, 10 μM ([2]; n ≥ 3, read-out: BL-AP (Papp B-A)): 2.41 ± 0.46 ×10⁻⁶ cm/s | efflux ratio at 4 h, 10 μM ([2]; read-out: Efflux ratio Papp B-A/Papp A-B): 1.07 ± 0.06 | Papp A→B at 4 h, 10 μM (ovine ABCG2 [3]): 1.13 ± 0.16 ×10⁻⁶ cm/s | Papp B→A at 4 h, 10 μM (ovine ABCG2 [3]): 3.23 ± 0.88 ×10⁻⁶ cm/s | efflux ratio at 4 h, 10 μM (ovine ABCG2 [3]): 2.92 ± 0.93 | AUC(0-inf) [4, 9]: 43300 ± 6400 ng·h/mL | Cmax [4, 9]: 2130 ± 280 ng/mL | MRT [4, 9]: 25 ± 3.97 h | Tmax [4, 9]: 6.67 ± 1.93 h | half-life ([4]; sc, clorsulon 2 mg/kg s.c., alone or with ivermectin or abamectin 0.2 mg/kg s.c., mean ± SD, n = 6, read-out: T1/2 of clorsulon in plasma (converted)): 19 ± 2.38 h | concentration at 8 h ([4]; subcutaneous, 8 h after clorsulon 2 mg/kg s.c., alone or with ivermectin 0.2 mg/kg s.c.): 1950 ± 240 ng/mL | Kp ([5]; female, Assaf, milk/plasma, subcutaneous, sheep, read-out: AUC milk/AUC plasma): 0.49 ± 0.14 | AUC(0-inf) ([5]; female, Assaf, sc, sheep milk): 20700 ± 4970 ng·h/mL | Cmax ([5]; female, Assaf, sc, sheep milk): 650 ± 290 ng/mL | MRT ([5]; female, Assaf, sc, sheep milk): 40.8 ± 6.15 h | Tmax ([5]; female, Assaf, sc, sheep milk): 10 ± 1.26 h | half-life ([5]; female, Assaf, sc, sheep milk, read-out: T1/2 of clorsulon in milk (converted)): 25.9 ± 3.72 h | Dose excreted (%) in milk (72 h) ([5]; sheep milk, 72 h): 0.86 ± 0.28% | Transport by ovine ABCG2 (substrate, in words) (ovine ABCG2 [1]; MDCKII oABCG2 cells, clorsulon 10 μM): efficiently transported
Molecule: Nc1cc(C(Cl)=C(Cl)Cl)c(S(N)(=O)=O)cc1S(N)(=O)=O [Clorsulon]
Efflux transport ratio (murine ABCG2): 2.20 ± 0.13 | Maximum plasma concentration [6]: 2.5 µg/mL | Time of maximum plasma concentration [6]: 6 h | Efflux transport ratio (human ABCG2): 1.63 ± 0.17

Molecule: Abamectin
Inhibition of clorsulon (10 μM) transport mediated by ovine ABCG2 (in words) (ovine ABCG2 [1]; [8]): effectively inhibited

Molecule: Ivermectin
Inhibition potency value (ovine ABCG2 [7]): 45.9% | Inhibition of clorsulon (10 μM) transport mediated by ovine ABCG2 (in words) (ovine ABCG2 [1]): effectively inhibited
